Reference: publication PMC3781034, “A Small-Animal Pharmacokinetic/Pharmacodynamic PET Study of Central Serotonin 1A Receptor Occupancy by a Potential Therapeutic Agent for Overactive Bladder” (PLoS ONE, 2013)

Assays:
5-HT1A [1] = settings: hippocampal, unanesthetized rats; cited from earlier work
5-HT1A [2] = settings: hippocampus, PET, isoflurane-anesthetized rats; cited from earlier work
micturition interval = assay: 5-HT1A receptor agonist (8-OH-DPAT)-induced model of OAB, cystometry; type: in vivo, female SD rats; settings: intravenous infusion 0.06 mg/kg/h, female SD rats
Procedure: Catheter implantations and cystometric investigations were performed based on the reported method [14]. Briefly, on the day before the cystometric experiment, female SD rats were initially anesthetized with pentobarbital (50 mg/kg ip). Catheters were inserted into the femoral vein, the dome of the stomach and the dome of the bladder. In the cystometric study, the bladder catheter was connected to an infusion pump and a pressure transducer (DX-312; Nihon Kohden Co., Tokyo, Japan) by three-way stopcock. Saline was infused into the bladder and femoral vein. After bladder pressure was stabilized, 8-OH-DPAT (0.06 mg/kg/h) was infused into the femoral vein instead of saline. Bladder pressure was monitored with a pressure transducer and a pressure amplifier (AP-601G; Nihon Kohden), and recorded on a pen recorder (WT-645G; Nihon Kohden). The following three micturition intervals (i.e., intervals between consecutive peaks of bladder pressure induced at the time of bladder content evacuation) were obtained: (1) basal micturition interval (intervals before 8-OH-DPAT administration), (2) pre-administration micturition interval, (intervals immediately before administration of E2110 or vehicle), and (3) post-administration micturition interval (intervals observed between 1 and 2 hr after administration of E2110 or vehicle). […] E2110 (0.03, 0.1 or 0.3 mg/kg) or vehicle was administered to four groups of eight conscious rats orally.
Data are expressed as mean ± standard error of mean (S.E.M). In the pharmacological study, the statistical significance of differences between the vehicle- and E2110-treated groups was tested using one-way analysis of variance (ANOVA) followed by Dunnett’s multiple comparison test. A probability (p) value of <0.05 (two-sided) was considered statistically significant. All statistical analyses were performed using the SAS software package version 8.1 or 8.2 (SAS Institute Japan Ltd., Tokyo, Japan).

rat 5-HT1A receptor = target: T1, rat 5-HT1A receptor (Rattus norvegicus, UniProt P19327); assay: Binding assay in rat hippocampal membrane fraction ([3H]MPPF); settings: saturation binding, rat hippocampal membranes, Scatchard plot
T1 construct: from tissue; host or cells: rat hippocampus, membrane (microsomal) fraction
T1 sequence (P19327 1-422): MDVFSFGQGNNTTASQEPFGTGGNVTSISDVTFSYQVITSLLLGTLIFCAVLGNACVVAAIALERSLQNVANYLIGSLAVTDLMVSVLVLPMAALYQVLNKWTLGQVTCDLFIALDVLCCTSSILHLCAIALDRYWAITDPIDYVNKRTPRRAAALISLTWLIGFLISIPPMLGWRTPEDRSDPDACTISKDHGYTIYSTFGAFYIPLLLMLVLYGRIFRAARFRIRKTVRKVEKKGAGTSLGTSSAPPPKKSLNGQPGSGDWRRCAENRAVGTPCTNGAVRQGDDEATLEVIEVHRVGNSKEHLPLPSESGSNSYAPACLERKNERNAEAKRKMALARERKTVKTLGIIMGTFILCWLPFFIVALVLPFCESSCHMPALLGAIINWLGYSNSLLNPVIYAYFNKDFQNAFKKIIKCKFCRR
Procedure: Rat hippocampal samples were weighed, homogenized in 10-fold volume of 50 mM Tris-HCl (pH 7.4) on an ice bath, and centrifuged (50,000×g, 4°C, 20 min). The precipitate was further homogenized in a 10-fold volume of 50 mM Tris-HCl (pH 7.4) on an ice bath and centrifuged (50,000×g, 4°C, 20 min). The obtained precipitate was homogenized in 50 mM Tris-HCl (pH 7.4) to render a concentration of 100 mg tissue eq./mL. The obtained microsomal fraction was stored as a receptor stock solution at -80°C until use. […] MPPF in a total 1-ml reaction volume at 25°C for 60 min. The reaction was terminated, and bound radioactivity was separated from free radioligands by filtering and washing three times with 3 ml of 50 mM Tris-HCl (pH 7.4). The radioactivity content of the filters in 5 ml of liquid scintillator (Atomlight; PerkinElmer) was counted by TR2500 scintillation counter (PerkinElmer Life & Analytical Sciences). The specific binding was determined as the difference between total and nonspecific binding, measured in the absence and presence of 100 µM 5-HT. Data were analyzed by Scatchard plot to estimate equilibrium constant (Kd) values. For the competition experiments, binding assays were carried out using 0.3 nM [^3H] […] MPPF according to the following equation:
Ki=IC50/1+[radioligand]/Kd (1)
where [radioligand] means the concentration of the radioligand used.

CC(C)NCC(O)COc1cccc2[nH]ccc12 (stereo not shown) [pindolol]
ED50 for 5-HT1A RO, ex vivo autoradiography (5-HT1A [1]): 8.5 mg/kg
in vivo ED50 for 5-HT1A RO (5-HT1A [2]): 5.6 mg/kg

CCCN(CCC)C1CCc2cccc(O)c2C1 (stereo not shown) [8-OH-DPAT, 8-hydroxy-2-(di-n-propylamino)-tetralin, reference compound]
micturition interval versus basal level (micturition interval): markedly decreased

COc1ccccc1N1CCN(CCN(C(=O)c2ccc(F)cc2)c2ccccn2)CC1 [[^3H] MPPF, [^3H] 2'-methoxyphenyl-(N-2'-pyridinyl)-p-fluoro-benzamidoethyipiperazine, reference compound]
Kd (rat 5-HT1A receptor): 0.92 nM
